Reference: article PMC4226674, “A phase I trial of the HIV protease inhibitor nelfinavir in adults with solid tumors” (Oncotarget, 2014)
Where “and” joins values, the source holds several entries; their conditions need not be identical. Equal entries are not always repeated.

Assays:
[1] = system: P-AKT S473; assay: Akt activation in PBMCs by immunoblotting; type: in vivo, human
Experimental: Blood was collected in Vacutainer CPT collection tubes with sodium heparin (BD Biosciences cat# 362753) and mononuclear cells were isolated as per the manufacturer's instructions. PBMCs were washed with PBS and lysed in 2X LSB buffer, aliquotted and stored at -80°C. For analysis, equal amounts of protein per sample were run on 10-12% SDS-PAGE gels, then transferred onto nitrocellulose membranes. Membranes were blocked in 5% milk in TBS + 0.1% tween (TBST) and incubated with primary antibody diluted in 5% BSA in TBST at 4 degrees overnight. The next day membranes were washed, incubated with HRP-linked secondary antibody and developed using ECL chemiluminescent reagent (GE Healthcare) and X-ray film as per the manufacturers instructions. […] Antibodies to CHOP sc-7351 and ATF3 sc-188 were from Santa Cruz Biotechnology (Santa Cruz, CA).

[2] = system: liposarcoma; conditions: cited from earlier work
[3] = system: advanced refractory solid tumors; assay: Tumor response by RECIST and duration of therapy
Experimental: Physical examinations, toxicity assessments and laboratory analyses were conducted weekly during cycle 1 and then every three weeks beginning cycle 2. An electrocardiogram was performed every cycle, and restaging scans were performed at baseline and every two cycles thereafter. Subjects remained on study until disease progression (as determined by RECIST), severe toxicity, or individual choice.
Tumor response was assessed according to Response Evaluation Criteria in Solid Tumors (RECIST) [34] every two cycles.

[4] = biological target: T1, CYP3A4 (Homo sapiens, UniProt P08684); assay: CYP3A4 phenotyping with oral midazolam before and at nelfinavir steady state; type: in vivo
T1 construct: To determine CYP3A4 phenotype, a single 3 mg oral dose of midazolam hydrochloride, a CYP3A4 substrate, was administered; from tissue; host or cells: in vivo, the patients' own (hepatic/intestinal) enzyme
T1 sequence (P08684 whole entry): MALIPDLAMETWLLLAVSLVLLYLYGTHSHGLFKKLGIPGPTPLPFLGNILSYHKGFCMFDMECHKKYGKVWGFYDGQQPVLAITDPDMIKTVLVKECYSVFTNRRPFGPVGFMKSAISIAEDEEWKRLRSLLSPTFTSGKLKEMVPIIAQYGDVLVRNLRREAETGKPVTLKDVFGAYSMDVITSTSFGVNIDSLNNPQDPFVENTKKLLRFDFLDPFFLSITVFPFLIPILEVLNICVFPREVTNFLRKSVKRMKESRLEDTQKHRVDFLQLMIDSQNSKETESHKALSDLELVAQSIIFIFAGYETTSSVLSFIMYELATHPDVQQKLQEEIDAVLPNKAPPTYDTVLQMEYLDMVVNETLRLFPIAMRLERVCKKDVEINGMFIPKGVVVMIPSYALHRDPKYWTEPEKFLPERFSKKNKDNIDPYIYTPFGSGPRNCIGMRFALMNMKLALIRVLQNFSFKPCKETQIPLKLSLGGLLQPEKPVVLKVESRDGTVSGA
Experimental: To determine CYP3A4 phenotype, a single 3 mg oral dose of midazolam hydrochloride, a CYP3A4 substrate, was administered at day -2 (2 days prior to commencing nelfinavir) and again at steady state (cycle 1 day 20). Serial venous blood samples were collected at 15, 30, 60, 120, 180, 240, and 300 minutes following administration of midazolam. […] Plasma concentrations of midazolam and nelfinavir were determined with a validated assay employing high performance liquid chromatography (HPLC) with mass spectrometric detection. Noncompartmental pharmacokinetic analyses were performed with WinNonlin 5.2 (Pharsight). Individual concentration-time profiles were constructed for each patient, course and drug resulting in four profiles per patient (two each for midazolam and nelfinavir). The maximum plasma concentration (Cmax) and the time of maximum plasma concentration (Tmax) were the observed values. Drug exposure was estimated using the area under the concentration-time curve (AUC). The area under the concentration-time curve (AUC) from time zero to the time of the final quantifiable sample (AUClast) was calculated using the linear trapezoidal method. The area under the concentration-time curve from time zero to infinity (AUCinf) was calculated by extrapolation, using the terminal rate constant from the last measurable concentration.

## Cc1c(O)cccc1C(=O)N[C@@H](CSc1ccccc1)[C@H](O)CN1C[C@H]2CCCC[C@H]2C[C@H]1C(=O)NC(C)(C)C [nelfinavir, Nelfinavir]
[1]; DL4 (3125 mg bid), after 7 or 42 days
  subject PBMCs showing a decrease in P-AKT S473: 45%
[1]; in vivo
  effect on AKT in peripheral blood mononuclear cells: inhibited AKT
[2]; Phase I trial
  MTD in liposarcoma patients: MTD was not reached
[2]; liposarcoma patients
  dose above which PK non-linearity was found: above 3000 mg bid
  dose at which auto-induction was noted (highest dose evaluated): 4125 mg BID
[3]; 3125 mg BID
  time on study, two of the subjects with NET of the midgut: at least 8 months
[3]; 3125 mg BID MTD, progressed prior to study entry (four subjects)
  subjects remaining on study for 8 months or more: 36%
[3]; 3125 mg bid expansion cohort, 11 evaluable subjects
  ORR (confirmed partial response) at the MTD: 9% and 9.1%
[3]; 21 evaluable subjects, all dose levels
  ORR in the overall population: 4.8%
[3]; NET of the midgut or pancreatic origin, MTD
  minor responses in subjects with neuroendocrine tumors: two
[3]; expansion cohort at the MTD
  subjects with stable disease for more than 6 months: Thirty-six
[3]; responders with NET and carcinoid syndrome
  levels of circulating chromogranin, synaptophysin, and/or urinary 5-HIAA: transient decreases
[3]; responders with NET that had carcinoid syndrome
  time to improvement of carcinoid syndrome symptoms (flushing and diarrhea): ≤ 7 days
[3]; subject 1, SCLC, 1250 mg BID
  Duration of therapy: 1.4 mos.
[3]; subject 3, SCLC, 1250 mg BID
  Duration of therapy: 1.4 mos.
[3]; subject 4, SCLC, 1250 mg BID
  Duration of therapy: 1.4 mos.
[3]; subject 5, Anaplastic Thyroid, 1875 mg BID
  Duration of therapy: 1.4 mos.
[3]; subject 7, Differentiated Thyroid, 1875 mg BID
  Duration of therapy: 2.8 mos.
[3]; subject 8, NSCLC, 1875 mg BID
  Duration of therapy: 3.5 mos.
[3]; subject 9, Colorectal, 2500 mg BID
  Duration of therapy: 1.4 mos.
[3]; subject 10, Pancreatic Adenocarcinoma, 2500 mg BID
  Duration of therapy: 2.8 mos.
[3]; subject 11, NSCLC, 2500 mg BID
  Duration of therapy: 4.1 mos.
[3]; subject 12, Differentiated thyroid, 3125 mg BID
  Duration of therapy: 2.1 mos.
[3]; subject 14, Renal Cell Cancer, 3125 mg BID
  Duration of therapy: 1.4 mos.
[3]; subject 17, Adenoid Cystic, 3125 mg BID
  Duration of therapy: 11 mos. and 11.0 mos.
[3]; subject 18, Neuroendocrine tumor, 3125 mg BID
  Duration of therapy: 8.3 mos.
[3]; subject 19, Colorectal, 3125 mg BID
  Duration of therapy: 4.1 mos.
[3]; subject 21, Adenoid Cystic, 3750 mg BID
  Duration of therapy: 1.4 mos.
[3]; subject 23, Prostate, 3125 mg BID
  Duration of therapy: 1.0 mos.
[3]; subject 24, SCLC, 3125 mg BID
  Duration of therapy: 2.8 mos.
[3]; subject 25, Colorectal, 3125 mg BID
  Duration of therapy: 2.8 mos.
[3]; subject 26, Neuroendocrine tumor, 3125 mg BID
  Duration of therapy: 12.4 mos.
[3]; subject 27, Neuroendocrine tumor, 3125 mg BID
  Duration of therapy: 3.5 mos.
[3]; subject 28, Neuroendocrine tumor (midgut, carcinoid syndrome), 3125 mg BID
  Duration of therapy: 23.5 mos.
[3]; subject that achieved a PR, NET of the midgut
  additional time on nelfinavir off study with stable disease: six
[4]; day 20 (nelfinavir steady state) vs pre-nelfinavir (D-2), 3 mg oral midazolam, 19 subjects, p<0.001
  change in midazolam clearance: significant decrease
[4]; day 20 vs pre-nelfinavir, p<0.05 for each, data not shown
  change in midazolam exposure and half-life: significant increase
